The target of test [1] is T1, rat Nluc‐A1AR (Rattus norvegicus, UniProt P25099).
T1 sequence (P25099 2-326 limits assumed): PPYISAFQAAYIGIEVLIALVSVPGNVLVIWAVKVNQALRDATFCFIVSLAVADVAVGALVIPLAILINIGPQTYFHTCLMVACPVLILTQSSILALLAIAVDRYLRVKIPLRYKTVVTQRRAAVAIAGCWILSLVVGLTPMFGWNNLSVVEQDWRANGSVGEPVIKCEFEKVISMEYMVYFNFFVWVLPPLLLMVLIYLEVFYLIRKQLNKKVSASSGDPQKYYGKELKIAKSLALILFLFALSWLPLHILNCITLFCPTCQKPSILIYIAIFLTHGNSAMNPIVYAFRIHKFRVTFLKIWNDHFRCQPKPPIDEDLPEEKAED
Description: Fluorescent agonist saturation binding in presence/absence of allosteric modulator (NanoBRET). On the set-up: expressed in transfected cells; key to B max: Bmax expressed as BRET ratio from saturation fit. To be noted: Rat Nluc A1R. An excerpt:
(§1) Pooled fluorescent agonist saturation assays obtained in the presence and absence of a fixed concentration of allosteric modulator were simultaneously fitted to the following equation: BRET ratio=Bmax×B/B+KD+M×B+C.
For orientation: Bioluminescence resonance energy transfer reports proximity on the nanometre scale.

Test [2] deals with T2, human Nluc‐A1AR (Homo sapiens, UniProt P30542).
T2 sequence (P30542 2-326 limits assumed): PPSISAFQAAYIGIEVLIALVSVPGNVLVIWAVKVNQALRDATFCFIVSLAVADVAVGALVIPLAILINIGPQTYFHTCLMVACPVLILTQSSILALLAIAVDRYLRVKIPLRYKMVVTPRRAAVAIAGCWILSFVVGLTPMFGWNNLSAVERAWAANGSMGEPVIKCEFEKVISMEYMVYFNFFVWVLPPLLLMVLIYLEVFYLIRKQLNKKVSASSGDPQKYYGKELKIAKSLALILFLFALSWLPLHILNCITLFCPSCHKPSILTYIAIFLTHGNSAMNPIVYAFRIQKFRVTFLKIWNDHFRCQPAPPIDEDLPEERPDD
The test is described as above. Particulars: Human Nluc A1R. Set-up: expressed in transfected cells; key to B max: Bmax expressed as BRET ratio from saturation fit.
From the text: as §1

Test [3] has as its target T2, human Nluc‐A1AR. The test is described as follows: NanoBRET competition binding: inhibition of specific binding of CA200645. To be noted: for IC50: Nluc‐human A1AR, 25 nM CA200645, HEK293T cells; for Ki: read-out: pK i ± SEM (converted); for concentrations producing a small direct inhibition of CA200645 binding: more evident at the human A1‐receptor. On the set-up: expressed in transfected cells. An excerpt: The IC50 values from competition‐binding curves were used to calculate the K i of the unlabelled ligands using the Cheng–Prusoff equation: Ki=IC50/1+L/KD, where [L] is the concentration of fluorescent ligand in nM, and K D is the dissociation constant of the fluorescent ligand in nM. The K D values used were obtained from the saturation‐binding experiments.

In test [4] the target is T1, rat Nluc‐A1AR. The description is as above.
Description: (§2) The fluorescent antagonist saturation, competition‐binding, allosteric modulator binding cooperativity, and the fluorescent agonist saturations in the presence/absence of allosteric modulator assays were performed on the stably transfected HEK293T cells expressing human or rat Nluc‐A1R. The cells were seeded 24 hr before experimentation in white walled, poly‐D‐lysine coated 96‐well microplates (Thermo Scientific, Loughborough, UK) at a density of 25,000 cells per well.
(§3) For each experiment, ligands were added simultaneously, and the 96‐well plate was incubated for 1 hr at 37°C (no CO2). Following this, the Nluc substrate furimazine (Promega) was added to give a final concentration of 10 μM and then incubated for 5 min at 37°C. For all experiments, the luminescence and resulting BRET were measured using the PHERAstar FS plate reader (BMG Labtech) using filtered light emissions at 460 nm (80 nm bandpass) and >610 nm (longpass) at room temperature. The raw BRET ratio was calculated by dividing the >610 nm emission by the 460 nm emission.
Test [5] has as its target T2, human Nluc‐A1AR. The test is described as follows: cell-based.
Description: as §2, §3
The target in test [6] is T1, rat Nluc‐A1AR. The test is described as follows: cell-based. Particulars: agonist pIC50, Rat, 25 nM CA200645.
Description: as §2, §3
The test system of a further test is human A1‐receptors. On the set-up: method as in May et al., 2010. Particulars: PD 81,723 10 μM, CHO cells; ref May et al., 2010; cited from earlier work.
The mark [7] stands for this setting: VCP171 0 (control), maximal specific binding (BRET ratio fit).

For `O=C(CCCCCNC(=O)COc1ccc(/C=C/C2=[N+]3C(=Cc4ccc(-c5cccs5)n4[B-]3(F)F)C=C2)cc1)NCCCCNc1ncnc2c1ncn2[C@@H]1O[C@H](CO)[C@@H](O)[C@H]1O` [ABA‐X‐BY630], the B max was determined as 0.031 ± 0.002 on rat Nluc‐A1AR [1] (PD 81,723 0 (control)); 0.031 ± 0.014 at rat Nluc‐A1AR [1] (setting [7]); 0.040 ± 0.005 at rat Nluc‐A1AR [1] (with 10 μM PD 81,723); 0.048 ± 0.009 at rat Nluc‐A1AR [1] (with 10 μM VCP171); 0.054 ± 0.007 on rat Nluc‐A1AR [1] (with 30 μM PD 81,723); 0.072 ± 0.021 on rat Nluc‐A1AR [1] (with 30 μM VCP171). Moreover, the B max at human Nluc‐A1AR [2] (PD 81,723 0 (control)) came out at 0.019 ± 0.002; on human Nluc‐A1AR [2] (setting [7]) it was 0.019 ± 0.002; on human Nluc‐A1AR [2] (with 10 μM PD 81,723), 0.035 ± 0.005; on human Nluc‐A1AR [2] (with 10 μM VCP171), 0.033 ± 0.004; on human Nluc‐A1AR [2] (with 30 μM PD 81,723), 0.035 ± 0.008; at human Nluc‐A1AR [2] (with 30 μM VCP171), 0.036 ± 0.003. In addition, the Kd (usually the concentration at which binding is half-saturated) on rat Nluc‐A1AR [1] (PD 81,723 0 (control)) is 0.955 µM; on rat Nluc‐A1AR [1] (VCP171 0 (control)) it was 0.891 µM; at human Nluc‐A1AR [2] (VCP171 0 (control)) it was 0.589 µM.
Turning to `CCNC(=O)[C@H]1O[C@@H](n2cnc3c(NCCCCNC(=O)CCCCCNC(=O)COc4ccc(/C=C/C5=[N+]6C(=Cc7ccc(-c8cccs8)n7[B-]6(F)F)C=C5)cc4)ncnc32)[C@H](O)[C@@H]1O` [ABEA‐X‐BY630], the B max on rat Nluc‐A1AR [1] (PD 81,723 0 (control)) was 0.015 ± 0.002; at rat Nluc‐A1AR [1] (setting [7]) it was 0.010 ± 0.001; on rat Nluc‐A1AR [1] (with 10 μM PD 81,723), 0.018 ± 0.002; at rat Nluc‐A1AR [1] (with 10 μM VCP171), 0.021 ± 0.002; at rat Nluc‐A1AR [1] (with 30 μM PD 81,723), 0.032 ± 0.01; on rat Nluc‐A1AR [1] (with 30 μM VCP171), 0.026 ± 0.003. Further, the B max at human Nluc‐A1AR [2] (PD 81,723 0 (control)) stood at 0.007 ± 0.001; on human Nluc‐A1AR [2] (setting [7]) it was 0.006 ± 0.001; on human Nluc‐A1AR [2] (with 10 μM PD 81,723), 0.012 ± 0.003; at human Nluc‐A1AR [2] (with 10 μM VCP171), 0.013 ± 0.002; at human Nluc‐A1AR [2] (with 30 μM PD 81,723), 0.016 ± 0.004; on human Nluc‐A1AR [2] (with 30 μM VCP171), 0.016 ± 0.002. For the same molecule, the Kd at rat Nluc‐A1AR [1] (PD 81,723 0 (control)) was 1.82 µM; on rat Nluc‐A1AR [1] (VCP171 0 (control)), 0.891 µM; at human Nluc‐A1AR [2] (PD 81,723 0 (control)), 0.977 µM; at human Nluc‐A1AR [2] (VCP171 0 (control)), 1.02 µM.
Take `N#Cc1c(N)nc(SCc2csc(-c3ccc(Cl)cc3)n2)c(C#N)c1-c1ccc(OCCO)cc1` [Capadenoson, 2‐amino‐6‐[[2‐(4‐chlorophenyl)‐1,3‐thiazol‐4‐yl]methylsulfanyl]‐4‐[4‐(2‐hydroxyethoxy)phenyl]pyridine‐3,5‐dicarbonitrile]: the IC50 – broadly, the midpoint of a concentration-inhibition curve – at human Nluc‐A1AR [3] was 0.245 µM; on rat Nluc‐A1AR [4], 0.186 µM; against human Nluc‐A1AR [5] it was 0.282 µM; at rat Nluc‐A1AR [6] (PD 81,723 0 (control)) it was 0.275 µM; on rat Nluc‐A1AR [6] (VCP171 0 (control)), 0.251 µM. For the same molecule, the Ki on human Nluc‐A1AR [3] is 0.141 µM; at rat Nluc‐A1AR [4], 0.102 µM.
On rat Nluc‐A1AR [4], `O=C(Cc1ccccc1)Nc1nc2ccc(Cl)cc2c2nc(-c3ccco3)nn12` [MRS1220, N‐[9‐chloro‐2‐(furan‐2‐yl)‐[1,2,4]triazolo[1,5‐c]quinazolin‐5‐yl]‐2‐phenylacetamide] gave an IC50 of 1.95 µM and a Ki of 1.07 µM.
`Cc1sc(N)c(C(=O)c2cccc(C(F)(F)F)c2)c1C` [PD 81,723, (2‐amino‐4,5‐dimethylthiophen‐3‐yl)(3‐(trifluoromethyl)phenyl)methanone]: the “concentrations producing a small direct inhibition of CA200645 binding” value on human Nluc‐A1AR [3] is over 100 µM. This molecule also showed an IC50 on rat Nluc‐A1AR [4] of over 100 µM. The “effect on dissociation of BY630‐ABA” value with human A1‐receptors is on record as “slow the dissociation”.
Turning to `Nc1scc(-c2cccc(C(F)(F)F)c2)c1C(=O)c1ccccc1` [VCP171, (2‐amino‐4‐(3‐(trifluoromethyl)phenyl)thiophen‐3‐yl)(phenyl)methanone], at human Nluc‐A1AR [3], the IC50 was 40.7 µM, the “concentrations producing a small direct inhibition of CA200645 binding” value was 10 to 100 µM and the Ki is 23.4 µM. On rat Nluc‐A1AR [4], this molecule had an IC50 of 129 µM and a Ki of 70.8 µM.
Turning to `Nc1sc(-c2ccc(C(=O)NCCCCCCNc3ncnc4c3ncn4[C@@H]3O[C@H](CO)[C@@H](O)[C@H]3O)cc2)c(-c2cccc(C(F)(F)F)c2)c1C(=O)c1ccccc1` [VCP746, 4‐(5‐amino‐4‐benzoyl‐3‐(3‐(trifluoromethyl)phenyl)thiophen‐2‐yl)‐N‐(6‐(9‐((2R,3R,4S,5R)‐3,4‐dihydroxy‐5‐(hydroxylmethyl)tetrahydro‐furan‐2‐yl)‐9H‐purin‐6‐ylamino)hexyl)benzamide], at rat Nluc‐A1AR [4], the IC50 was 17.4 µM and the Ki was 9.55 µM.

Values taken from publication PMC6433648 (British Journal of Pharmacology, 2019).
